Measured values as given in ChEMBL document CHEMBL1629695, “A novel polymyxin derivative that lacks the fatty acid tail and carries only three positive charges has strong synergism with agents excluded by the intact outer membrane” (Antimicrob Agents Chemother, 2010).
Bridge positions count the residues as written; N and C are the ends. Square brackets hold non-standard residues; d marks the D form. Peptide text beside a SMILES is read from it. * marks the point of attachment. Octanoyl = CCCCCCCC(=O)*; Dab = NCC[C@H](N)C(=O)O; Abu = CC[C@H](N)C(=O)O

How the values were obtained:
Acinetobacter baumannii [1] = assay: Antimicrobial activity against Acinetobacter baumannii ATCC 19606 assessed as zone of inhibition at 10 ug after 18 hrs by disk diffusion method; type: functional
Escherichia coli [2] = assay: Antimicrobial activity against Escherichia coli IH3080 assessed as zone of inhibition at 10 ug after 18 hrs by disk diffusion method in presence of 1 ug/ml rifampin; type: functional
Pseudomonas aeruginosa [3] = assay: Antimicrobial activity against Pseudomonas aeruginosa ATCC 27853 assessed as zone of inhibition at 10 ug after 18 hrs by disk diffusion method; type: functional
Escherichia coli [4] = assay: Antimicrobial activity against Escherichia coli IH3080 assessed as zone of inhibition at 10 ug after 18 hrs by disk diffusion method; type: functional
Acinetobacter baumannii [5] = assay: Antimicrobial activity against Acinetobacter baumannii ATCC 19606 assessed as zone of inhibition at 10 ug after 18 hrs by disk diffusion method in presence of 1 ug/ml rifampin; type: functional
Pseudomonas aeruginosa [6] = assay: Antimicrobial activity against Pseudomonas aeruginosa ATCC 27853 assessed as zone of inhibition at 10 ug after 18 hrs by disk diffusion method in presence of 1 ug/ml rifampin; type: functional
[7] = Drug level in Sprague-Dawley rat urine at 1 mg/kg, iv; type: ADME, organism-based; set-up: dose 1 mg/kg, route intravenous; details: Sprague-Dawley, urine, read-out: Drug uptake
Escherichia coli [8] = assay: Antimicrobial activity against Escherichia coli IH3080 by Etest method in presence of 4 ug/ml NAB741; type: functional
Escherichia coli [9] = assay: Ratio of MIC for Escherichia coli IH3080 to MIC for Escherichia coli IH3080 in presence of 4 ug/ml of NAB741; type: functional
Klebsiella pneumoniae [10] = assay: Ratio of MIC for Klebsiella pneumoniae ATCC 13883 to MIC for Klebsiella pneumoniae ATCC 13883 in presence of 4 ug/ml of NAB741; type: functional
Escherichia coli [11] = assay: Antimicrobial activity against Escherichia coli ATCC 25922 by Etest method in presence of 4 ug/ml NAB741; type: functional
Escherichia coli [12] = assay: Ratio of MIC for Escherichia coli ATCC 25922 to MIC for Escherichia coli ATCC 25922 in presence of 4 ug/ml of NAB741; type: functional
Enterobacter cloacae [13] = assay: Ratio of MIC for Enterobacter cloacae ATCC 23355 to MIC for Enterobacter cloacae ATCC 23355 in presence of 4 ug/ml of NAB741; type: functional
Enterobacter cloacae [14] = assay: Antimicrobial activity against Enterobacter cloacae ATCC 23355 by Etest method in presence of 4 ug/ml NAB741; type: functional
Acinetobacter baumannii [15] = assay: Antimicrobial activity against Acinetobacter baumannii ATCC 19606 by Etest method in presence of 4 ug/ml NAB741; type: functional
Klebsiella pneumoniae [16] = assay: Antimicrobial activity against Klebsiella pneumoniae ATCC 13883 by Etest method in presence of 4 ug/ml NAB741; type: functional
Acinetobacter baumannii [17] = assay: Ratio of MIC for Acinetobacter baumannii ATCC 19606 to MIC for Acinetobacter baumannii ATCC 19606 in presence of 4 ug/ml of NAB741; type: functional

Row | Compound | inhibition zone (IZ) (Acinetobacter baumannii [1]) [mm2] | inhibition zone (IZ) (Escherichia coli [2]) [mm2] | inhibition zone (IZ) (Pseudomonas aeruginosa [3]) [mm2] | inhibition zone (IZ) (Escherichia coli [4]) [mm2] | inhibition zone (IZ) (Acinetobacter baumannii [5]) [mm2] | inhibition zone (IZ) (Pseudomonas aeruginosa [6]) [mm2] | dose excreted [7] [%] | MIC (Escherichia coli [8]) [µg/mL] | Ratio (Escherichia coli [9]) | Ratio (Klebsiella pneumoniae [10]) | MIC (Escherichia coli [11]) [µg/mL] | Ratio (Escherichia coli [12]) | Ratio (Enterobacter cloacae [13]) | MIC (Enterobacter cloacae [14]) [µg/mL] | MIC (Acinetobacter baumannii [15]) [µg/mL] | MIC (Klebsiella pneumoniae [16]) [µg/mL] | Ratio (Acinetobacter baumannii [17])
1 | CN[C@H](C(=O)N[C@H](CO)C(=O)N[C@H]1CCNC(=O)[C@H]([C@@H](C)O)NC(=O)[C@H](CCN)NC(=O)[C@H](CCN)NC(=O)[C@H](CC(C)C)NC(=O)[C@@H](Cc2ccccc2)NC(=O)[C@H](CCN)NC1=O)[C@@H](C)O | 3 | 130 | 7 | 3 | 79 | 38 |  |  |  |  |  |  |  |  |  |  | 
2 | CC(=O)N[C@H](C(=O)NCCCC(=O)N[C@H]1CCNC(=O)[C@H]([C@@H](C)O)NC(=O)[C@H](CCN)NC(=O)[C@H](CCN)NC(=O)[C@H](CC(C)C)NC(=O)[C@@H](Cc2ccccc2)NC(=O)[C@H](CCN)NC1=O)[C@@H](C)O | 3 | 8 | 3 | 3 | 9 | 3 |  |  |  |  |  |  |  |  |  |  | 
3 | CC(=O)N[C@H](C(=O)N[C@H](CC(N)=O)C(=O)N[C@H]1CCNC(=O)[C@H]([C@@H](C)O)NC(=O)[C@H](CCN)NC(=O)[C@H](CCN)NC(=O)[C@H](CC(C)C)NC(=O)[C@@H](Cc2ccccc2)NC(=O)[C@H](CCN)NC1=O)[C@@H](C)O | 3 | 110 | 3 | 3 | 154 | 3 |  |  |  |  |  |  |  |  |  |  | 
4 | CCCCCCCC(=O)N[C@H](C(=O)N[C@@H](CC)C(=O)N[C@H]1CCNC(=O)[C@H]([C@@H](C)O)NC(=O)[C@H](CCN)NC(=O)[C@H](CCN)NC(=O)[C@H](CC(C)C)NC(=O)[C@@H](Cc2ccccc2)NC(=O)[C@H](CCN)NC1=O)[C@@H](C)O (Octanoyl-T[Abu][Dab][Dab][dF]L[Dab][Dab]T; lactam 3-C) [listing 1 of 2 here] |  |  |  |  |  |  | 7.16 |  |  |  |  |  |  |  |  |  | 
5 | CCCCCCCC(=O)N[C@H](C(=O)N[C@@H](CC)C(=O)N[C@H]1CCNC(=O)[C@H]([C@@H](C)O)NC(=O)[C@H](CCN)NC(=O)[C@H](CCN)NC(=O)[C@H](CC(C)C)NC(=O)[C@@H](Cc2ccccc2)NC(=O)[C@H](CCN)NC1=O)[C@@H](C)O (Octanoyl-T[Abu][Dab][Dab][dF]L[Dab][Dab]T; lactam 3-C) [listing 2 of 2 here] | 3 | 206 | 2 | 32 | 252 | 55 |  |  |  |  |  |  |  |  |  |  | 
6 | CCCCCCCC(=O)N[C@H](C(=O)N[C@H](CO)C(=O)N[C@H]1CCNC(=O)[C@H]([C@@H](C)O)NC(=O)[C@H](CCN)NC(=O)[C@H](CCN)NC(=O)[C@H](CC(C)C)NC(=O)[C@@H](Cc2ccccc2)NC(=O)[C@H](CCN)NC1=O)[C@@H](C)O (Octanoyl-T[dS][Dab][Dab][dF]L[Dab][Dab]T; lactam 3-C) [listing 1 of 2 here] |  |  |  |  |  |  | 19.4 |  |  |  |  |  |  |  |  |  | 
7 | CCCCCCCC(=O)N[C@H](C(=O)N[C@H](CO)C(=O)N[C@H]1CCNC(=O)[C@H]([C@@H](C)O)NC(=O)[C@H](CCN)NC(=O)[C@H](CCN)NC(=O)[C@H](CC(C)C)NC(=O)[C@@H](Cc2ccccc2)NC(=O)[C@H](CCN)NC1=O)[C@@H](C)O (Octanoyl-T[dS][Dab][Dab][dF]L[Dab][Dab]T; lactam 3-C) [listing 2 of 2 here] | 161 | 212 | 81 | 170 | 395 | 87 |  |  |  |  |  |  |  |  |  |  | 
8 | CC[C@H]1OC(=O)[C@H](C)[C@@H](O[C@H]2C[C@@](C)(OC)[C@@H](O)[C@H](C)O2)[C@H](C)[C@@H](O[C@@H]2O[C@H](C)C[C@H](N(C)C)[C@H]2O)[C@](C)(O)C[C@@H](C)CN(C)[C@H](C)[C@@H](O)[C@]1(C)O [AZITHROMYCIN] |  |  |  |  |  |  |  | 0.094 | 8 | 11 | 0.125 | 16 | 16 | 0.25 | 1.5 | 0.125 | 21
9 | CC(=O)O[C@H]1C[C@@]2(C)[C@@H](C[C@@H](O)[C@H]3[C@@]4(C)CC[C@@H](O)[C@@H](C)[C@@H]4CC[C@@]32C)/C1=C(\CCC=C(C)C)C(=O)O [FUSIDIC ACID] |  |  |  |  |  |  |  | 2 | >130 | >5 | 1.5 | >170 | >130 | 2 | 6 | 48 | >43
10 | C/C(=C\C(=O)OCCCCCCCCC(=O)O)C[C@@H]1OC[C@H](C[C@@H]2O[C@H]2[C@@H](C)[C@H](C)O)[C@@H](O)[C@H]1O [MUPIROCIN] |  |  |  |  |  |  |  | 1 | 24 | 8 | 0.75 | 64 | 50 | 0.25 | 512 | 6 | <2
11 | CC(C)C[C@@H]1NC(=O)[C@@H](Cc2ccccc2)NC(=O)[C@H](CCN)NC(=O)[C@@H](NC(=O)[C@H](CCN)NC(=O)[C@@H](N)[C@@H](C)O)CCNC(=O)[C@H]([C@@H](C)O)NC(=O)[C@H](CCN)NC(=O)[C@H](CCN)NC1=O [POLYMYXIN B NONAPEPTIDE] (H-T[Dab][Dab][Dab][dF]L[Dab][Dab]T; lactam 3-C) | 3 | 143 | 144 | 3 | 155 | 169 |  |  |  |  |  |  |  |  |  |  | 
12 | CN[C@H](CC(C)C)C(=O)N[C@H]1C(=O)N[C@@H](CC(N)=O)C(=O)N[C@H]2C(=O)N[C@H]3C(=O)N[C@H](C(=O)N[C@H](C(=O)O)c4cc(O)cc(O)c4-c4cc3ccc4O)[C@H](O)c3ccc(c(Cl)c3)Oc3cc2cc(c3O[C@@H]2O[C@H](CO)[C@@H](O)[C@H](O)[C@H]2O[C@H]2C[C@](C)(N)[C@H](O)[C@H](C)O2)Oc2ccc(cc2Cl)[C@H]1O [VANCOMYCIN] |  |  |  |  |  |  |  | 16 | >16 | >2 | 8 | >32 | >170 | 1.5 | 24 | 128 | >11
13 | POLYMYXIN B | 185 | 133 | 151 | 129 | 202 | 166 |  |  |  |  |  |  |  |  |  |  | 
